Measurements taken from patent publication US20260116920A1, “HUMAN TRANSFERRIN RECEPTOR BINDING PEPTIDE” (PEPTIDREAM INC., priority 2021, published 2026).
pKd: −log10 of the molar value. Starred links: 1 amine or outer side, 2 acyl side, 3 side chain; linkers in the order of their positions; H or OH if unused. Positions of bridges follow the written chain, without caps; N, C: chain ends. Non-standard residues stand in square brackets, D forms with d. Residues, ends and D or L forms follow the SMILES beside them. *: point of attachment. X3 = CN([C@@H](Cc1cccc(C(=O)[*:3])c1)C(=O)[*:2])[*:1]; NMePhe(4-COOH) = CN[C@@H](Cc1ccc(C(=O)O)cc1)C(=O)O; X1 = O=C([C@H](Cc1cccc(C(=O)[*:3])c1)N[*:1])[*:2]; NMePhe(3-Cl) = CN[C@@H](Cc1cccc(Cl)c1)C(=O)O; NMeY = CN[C@@H](Cc1ccc(O)cc1)C(=O)O; NH(CH2CH2O)4Me = COCCOCCOCCOCCN*; PEG4 = NCCOCCOCCOCCOCCC(=O)O; Carboxymethyl = O=C(O)C*

molecular target: T1, human transferrin receptor (hTfR) (Homo sapiens, UniProt P02786); assay: Evaluation of molecular interaction between transferrin receptor (hTfR) and peptide using surface plasmon resonance (SPR); type: binding; conditions: surface plasmon resonance, binding to hTfR; KD class symbol; read-out: SPR (KD value)
T1 construct: made in house
T1 sequence (P02786 89-760 limits assumed): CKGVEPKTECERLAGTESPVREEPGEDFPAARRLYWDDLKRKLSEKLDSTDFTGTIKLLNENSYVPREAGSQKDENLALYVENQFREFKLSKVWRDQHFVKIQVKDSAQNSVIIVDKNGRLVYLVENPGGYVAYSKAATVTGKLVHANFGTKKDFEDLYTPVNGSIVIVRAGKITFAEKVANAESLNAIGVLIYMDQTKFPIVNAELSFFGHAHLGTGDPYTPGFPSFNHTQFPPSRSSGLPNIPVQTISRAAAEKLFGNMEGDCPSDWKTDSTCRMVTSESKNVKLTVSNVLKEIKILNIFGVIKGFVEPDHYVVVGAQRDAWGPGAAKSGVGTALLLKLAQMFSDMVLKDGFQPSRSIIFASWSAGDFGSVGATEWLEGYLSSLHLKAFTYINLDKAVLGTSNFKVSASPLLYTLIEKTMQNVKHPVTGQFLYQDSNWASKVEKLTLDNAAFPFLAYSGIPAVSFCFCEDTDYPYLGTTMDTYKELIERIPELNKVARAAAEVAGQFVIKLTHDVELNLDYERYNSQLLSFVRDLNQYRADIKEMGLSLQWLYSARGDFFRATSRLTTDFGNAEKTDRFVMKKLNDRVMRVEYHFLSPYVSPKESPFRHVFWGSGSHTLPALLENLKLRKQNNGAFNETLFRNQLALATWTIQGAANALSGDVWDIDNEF
Outline: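 Recombinant hTfR dimer (0.5 μM) immobilized on Ni-loaded NTA chip via EDC/NHS, ethanolamine-capped. Peptides at 5–100 nM in HEPES pH 8.0 buffer with 150 mM NaCl, 0.05% Tween 20, 0.1% BSA, 1.0% DMSO, flowed by single-cycle kinetics; KD from least-squares fit of sensorgrams.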

pKd, 7.00 to 9.00:
CC[C@H](C)[C@@H]1NC(=O)[C@H](Cc2ccc(OCC(=O)O)cc2)NC(=O)[C@H](Cc2ccc(O)cc2)NC(=O)[C@H](CC(N)=O)NC(=O)[C@H](Cc2c[nH]c3ccccc23)NC(=O)[C@H](C(C)C)NC(=O)[C@H](Cc2cccc(Cl)c2)N(C)C(=O)[C@H](C(C)C)NC(=O)[C@H](C)NC(=O)CSC[C@@H](C(=O)NCCOCCOCCOCCOCCC(N)=O)NC(=O)[C@H](Cc2ccc(O)cc2)N(C)C(=O)[C@H](Cc2ccccc2)NC(=O)[C@H](CCC(N)=O)NC(=O)[C@H](CCC(=O)NCCOCCOCCOCCOC)NC(=O)[C@H]([C@@H](C)CC)NC1=O [compound 123] ({CH2CO}-AV[NMePhe(3-Cl)]VWNYY(Carboxymethyl)IIE(NH(CH2CH2O)4Me)QF[NMeY]C[PEG4]-NH2; thioether N-15), CC[C@H](C)[C@@H]1NC(=O)[C@H](Cc2ccc(OCC(=O)O)cc2)NC(=O)[C@H](Cc2ccc(O)cc2)NC(=O)[C@H](CC(N)=O)NC(=O)[C@H](Cc2c[nH]c3ccccc23)NC(=O)[C@H](C(C)C)NC(=O)[C@H](Cc2cccc(Cl)c2)N(C)C(=O)[C@H](C(C)C)NC(=O)[C@H](C)NC(=O)CSC[C@@H](C(=O)NCCOCCOCCOCCOCCC(N)=O)NC(=O)[C@H](Cc2ccc(O)cc2)N(C)C(=O)[C@H](CCC(=O)NCCOCCOCCOCCOC)NC(=O)[C@H](CCCNC(=N)N)NC(=O)[C@H](CCC(=O)NCCOCCOCCOCCOC)NC(=O)[C@H]([C@@H](C)CC)NC1=O [compound 124] ({CH2CO}-AV[NMePhe(3-Cl)]VWNYY(Carboxymethyl)IIE(NH(CH2CH2O)4Me)RE(NH(CH2CH2O)4Me)[NMeY]C[PEG4]-NH2; thioether N-15), CC[C@H](C)[C@@H]1NC(=O)[C@H](Cc2ccc(OCC(=O)O)cc2)NC(=O)[C@H](Cc2ccc(O)cc2)NC(=O)[C@H](CC(N)=O)NC(=O)[C@H](Cc2c[nH]c3ccccc23)NC(=O)[C@H](C(C)C)NC(=O)[C@H](Cc2cccc(Cl)c2)N(C)C(=O)[C@H](C(C)C)NC(=O)[C@H](C)NC(=O)CSC[C@@H](C(=O)NCC(=O)N[C@H](CO)C(=O)N[C@H](CO)C(=O)N[C@H](CO)C(=O)N[C@H](CO)C(=O)N[C@H](CO)C(N)=O)NC(=O)[C@H](Cc2ccc(O)cc2)N(C)C(=O)[C@H](CCC(=O)NCCOCCOCCOCCOC)NC(=O)[C@H](CCCNC(=N)N)NC(=O)[C@H](CCC(=O)NCCOCCOCCOCCOC)NC(=O)[C@H]([C@@H](C)CC)NC1=O [compound 125], CC[C@H](C)[C@@H]1NC(=O)[C@H](Cc2ccc(OCC(=O)O)cc2)NC(=O)[C@H](Cc2ccc(O)cc2)NC(=O)[C@H](CC(N)=O)NC(=O)[C@H](Cc2c[nH]c3ccccc23)NC(=O)[C@H](C(C)C)NC(=O)[C@H](Cc2cccc(Cl)c2)N(C)C(=O)[C@H](C(C)C)NC(=O)[C@H](C)NC(=O)CSC[C@@H](C(=O)NCCOCCOCCOCCOCCC(N)=O)NC(=O)[C@H](Cc2ccc(O)cc2)N(C)C(=O)[C@H](Cc2cccc(C(=O)NCCOCCOCCOCCOC)c2)NC(=O)[C@H](CCCNC(=N)N)NC(=O)[C@H](CCC(=O)NCCOCCOCCOCCOC)NC(=O)[C@H]([C@@H](C)CC)NC1=O [compound 126], CC[C@H](C)[C@@H]1NC(=O)[C@H](Cc2ccc(OCC(=O)O)cc2)NC(=O)[C@H](Cc2ccc(O)cc2)NC(=O)[C@H](CC(N)=O)NC(=O)[C@H](Cc2c[nH]c3ccccc23)NC(=O)[C@H](C(C)C)NC(=O)[C@H](Cc2cccc(Cl)c2)N(C)C(=O)[C@H](C(C)C)NC(=O)[C@H](C)NC(=O)CSC[C@@H](C(=O)NCCOCCOCCOCCOCCC(N)=O)NC(=O)[C@H](Cc2ccc(C(=O)NCCOCCOCCOCCOC)cc2)N(C)C(=O)[C@H](Cc2cccc(C(=O)NCCOCCOCCOCCOC)c2)NC(=O)[C@H](CCCNC(=N)N)NC(=O)[C@H](CCC(N)=O)NC(=O)[C@H]([C@@H](C)CC)NC1=O [compound 127] ({CH2CO}-AV[NMePhe(3-Cl)]VWNYY(Carboxymethyl)IIQR[X1](NH(CH2CH2O)4Me)[NMePhe(4-COOH)](NH(CH2CH2O)4Me)C[PEG4]-NH2; thioether N-15), CC[C@H](C)[C@@H]1NC(=O)[C@H](Cc2ccc(OCC(=O)O)cc2)NC(=O)[C@H](Cc2ccc(O)cc2)NC(=O)[C@H](CC(N)=O)NC(=O)[C@H](Cc2c[nH]c3ccccc23)NC(=O)[C@H](C(C)C)NC(=O)[C@H](Cc2cccc(Cl)c2)N(C)C(=O)[C@H](C(C)C)NC(=O)[C@H](C)NC(=O)CSC[C@@H](C(=O)NCCOCCOCCOCCOCCC(N)=O)NC(=O)[C@H](Cc2cccc(C(=O)NCCOCCOCCOCCOC)c2)N(C)C(=O)[C@H](Cc2cccc(C(=O)NCCOCCOCCOCCOC)c2)NC(=O)[C@H](CCCNC(=N)N)NC(=O)[C@H](CCC(N)=O)NC(=O)[C@H]([C@@H](C)CC)NC1=O [compound 128] ({CH2CO}-AV[NMePhe(3-Cl)]VWNYY(Carboxymethyl)IIQR[X1](NH(CH2CH2O)4Me)[X3](NH(CH2CH2O)4Me)C[PEG4]-NH2; thioether N-15), CC[C@H](C)[C@@H]1NC(=O)[C@H](Cc2ccc(OCC(=O)O)cc2)NC(=O)[C@H](Cc2ccc(O)cc2)NC(=O)[C@H](CC(N)=O)NC(=O)[C@H](Cc2c[nH]c3ccccc23)NC(=O)[C@H](C(C)C)NC(=O)[C@H](Cc2cccc(Cl)c2)N(C)C(=O)[C@H](C(C)C)NC(=O)[C@H](C)NC(=O)CSC[C@@H](C(=O)NCC(=O)N[C@H](CO)C(=O)N[C@H](CO)C(=O)N[C@H](CO)C(=O)N[C@H](CO)C(=O)N[C@H](CO)C(N)=O)NC(=O)[C@H](Cc2cccc(C(=O)NCCOCCOCCOCCOC)c2)N(C)C(=O)[C@H](Cc2cccc(C(=O)NCCOCCOCCOCCOC)c2)NC(=O)[C@H](CCCNC(=N)N)NC(=O)[C@H](CCC(N)=O)NC(=O)[C@H]([C@@H](C)CC)NC1=O [compound 129], CC[C@H](C)[C@@H]1NC(=O)[C@H](Cc2ccc(OCC(=O)O)cc2)NC(=O)[C@H](Cc2ccc(O)cc2)NC(=O)[C@H](CC(N)=O)NC(=O)[C@H](Cc2c[nH]c3ncccc23)NC(=O)[C@H](C(C)C)NC(=O)[C@H](Cc2cccc(Cl)c2)N(C)C(=O)[C@H](C(C)C)NC(=O)[C@H](C)NC(=O)CSC[C@@H](C(=O)NCCOCCOCCOCCOCCC(N)=O)NC(=O)[C@H](Cc2ccc(O)cc2)N(C)C(=O)[C@H](Cc2cccc(C(=O)NCCOCCOCCOCCOC)c2)NC(=O)[C@H](CCCNC(=N)N)NC(=O)[C@H](CCC(=O)NCCOCCOCCOCCOC)NC(=O)[C@H]([C@@H](C)CC)NC1=O [compound 130], CC[C@H](C)[C@@H]1NC(=O)[C@H](Cc2ccc(OCC(=O)O)cc2)NC(=O)[C@H](Cc2ccc(O)cc2)NC(=O)[C@H](CC(N)=O)NC(=O)[C@H](Cc2c[nH]c3ncccc23)NC(=O)[C@H](C(C)C)NC(=O)[C@H](Cc2cccc(Cl)c2)N(C)C(=O)[C@H](C(C)C)NC(=O)[C@H](C)NC(=O)CSC[C@@H](C(=O)NCCOCCOCCOCCOCCC(N)=O)NC(=O)[C@H](Cc2ccc(C(=O)NCCOCCOCCOCCOC)cc2)N(C)C(=O)[C@H](Cc2cccc(C(=O)NCCOCCOCCOCCOC)c2)NC(=O)[C@H](CCCNC(=N)N)NC(=O)[C@H](CCC(N)=O)NC(=O)[C@H]([C@@H](C)CC)NC1=O [compound 131], CC[C@H](C)[C@@H]1NC(=O)[C@H](Cc2ccc(OCC(=O)O)cc2)NC(=O)[C@H](Cc2ccc(O)cc2)NC(=O)[C@H](CC(N)=O)NC(=O)[C@H](Cc2c[nH]c3ncccc23)NC(=O)[C@H](C(C)C)NC(=O)[C@H](Cc2cccc(Cl)c2)N(C)C(=O)[C@H](C(C)C)NC(=O)[C@H](C)NC(=O)CSC[C@@H](C(=O)NCCOCCOCCOCCOCCC(N)=O)NC(=O)[C@H](Cc2cccc(C(=O)NCCOCCOCCOCCOC)c2)N(C)C(=O)[C@H](Cc2cccc(C(=O)NCCOCCOCCOCCOC)c2)NC(=O)[C@H](CCCNC(=N)N)NC(=O)[C@H](CCC(N)=O)NC(=O)[C@H]([C@@H](C)CC)NC1=O [compound 132], CC[C@H](C)[C@@H]1NC(=O)[C@H](Cc2ccc(OCC(=O)O)cc2)NC(=O)[C@H](Cc2ccc(O)cc2)NC(=O)[C@H](CC(N)=O)NC(=O)[C@H](Cc2c[nH]c3ncccc23)NC(=O)[C@H](C(C)C)NC(=O)[C@H](Cc2cccc(Cl)c2)N(C)C(=O)[C@H](C(C)C)NC(=O)[C@H](C)NC(=O)CSC[C@@H](C(=O)NCCOCCOCCOCCOCCC(N)=O)NC(=O)[C@H](Cc2ccc(O)cc2)N(C)C(=O)[C@H](Cc2ccccc2)NC(=O)[C@H](CCCNC(=N)N)NC(=O)[C@H](CCC(=O)NCCOCCOCCOCCOC)NC(=O)[C@H]([C@@H](C)CC)NC1=O [compound 133], CC[C@H](C)[C@@H]1NC(=O)[C@H](Cc2ccc(OCC(=O)O)cc2)NC(=O)[C@H](Cc2ccc(O)cc2)NC(=O)[C@H](CC(N)=O)NC(=O)[C@H](Cc2cn(CC(=O)O)c3ccccc23)NC(=O)[C@H](C(C)C)NC(=O)[C@H](Cc2cccc(Cl)c2)N(C)C(=O)[C@H](C(C)C)NC(=O)[C@H](C)NC(=O)CSC[C@@H](C(=O)NCCOCCOCCOCCOCCC(N)=O)NC(=O)[C@H](Cc2ccc(O)cc2)N(C)C(=O)[C@H](Cc2ccncc2)NC(=O)[C@H](CCCNC(=N)N)NC(=O)[C@H](CCC(N)=O)NC(=O)[C@H]([C@@H](C)CC)NC1=O [compound 134], CC[C@H](C)[C@@H]1NC(=O)[C@H](Cc2ccc(OCC(=O)O)cc2)NC(=O)[C@H](Cc2ccc(O)cc2)NC(=O)[C@H](CC(N)=O)NC(=O)[C@H](Cc2cn(CC(=O)O)c3ccccc23)NC(=O)[C@H](C(C)C)NC(=O)[C@H](Cc2cccc(Cl)c2)N(C)C(=O)[C@H](C(C)C)NC(=O)[C@H](C)NC(=O)CSC[C@@H](C(=O)NCCOCCOCCOCCOCCC(N)=O)NC(=O)[C@H](Cc2ccc(O)cc2)N(C)C(=O)[C@H](Cc2ccncc2)NC(=O)[C@H](CCCCN2CCOCC2)NC(=O)[C@H](CCC(N)=O)NC(=O)[C@H]([C@@H](C)CC)NC1=O [compound 135], CC[C@H](C)[C@@H]1NC(=O)[C@H](Cc2ccc(OCC(=O)O)cc2)NC(=O)[C@H](Cc2ccc(O)cc2)NC(=O)[C@H](CC(N)=O)NC(=O)[C@H](Cc2cn(CC(=O)O)c3ccccc23)NC(=O)[C@H](C(C)C)NC(=O)[C@H](Cc2cccc(Cl)c2)N(C)C(=O)[C@H](C(C)C)NC(=O)[C@H](C)NC(=O)CSC[C@@H](C(=O)NCCOCCOCCOCCOCCC(N)=O)NC(=O)[C@H](Cc2ccc(O)cc2)N(C)C(=O)[C@H](Cc2cccc(C(=O)O)c2)NC(=O)[C@H](CCCNC(=N)N)NC(=O)[C@H](CCC(N)=O)NC(=O)[C@H]([C@@H](C)CC)NC1=O [compound 136]
